In patent US10047078B2, “Aminothiazole compounds” (National Health Research Institutes, priority 2016, dated 2018):

Legend:
[1] = molecular target: DDR1 (Homo sapiens, UniProt Q08345); test: SelectScreen biochemical kinase profiling; format: binding; conditions: 100 nM, read-out: Inhibition (% of control) at 100 nM
Procedure: (§1) Kinase inhibition data were obtained from SelectScreen® Biochemical Kinase Profiling Service.
(§2) More specifically, test compounds were screened in 160 nL of a 1% DMSO solution in the well of a 384-well plate; kinase/antibody mixtures (8 μL) were diluted to a 2-fold working concentration in an appropriate kinase buffer (3.84 μL) and a 4-fold AlexaFluor® labeled tracer (4 μL) was prepared in the kinase buffer; incubation of test solutions was conducted at room is temperature for 60 minutes; and readout on a fluorescence plate reader was recorded and analyzed.

[2] = molecular target: KIT (Homo sapiens, UniProt P10721); test: SelectScreen biochemical kinase profiling; format: binding; conditions: 100 nM, read-out: Inhibition (% of control) at 100 nM
Sequence of KIT (P10721 26-976): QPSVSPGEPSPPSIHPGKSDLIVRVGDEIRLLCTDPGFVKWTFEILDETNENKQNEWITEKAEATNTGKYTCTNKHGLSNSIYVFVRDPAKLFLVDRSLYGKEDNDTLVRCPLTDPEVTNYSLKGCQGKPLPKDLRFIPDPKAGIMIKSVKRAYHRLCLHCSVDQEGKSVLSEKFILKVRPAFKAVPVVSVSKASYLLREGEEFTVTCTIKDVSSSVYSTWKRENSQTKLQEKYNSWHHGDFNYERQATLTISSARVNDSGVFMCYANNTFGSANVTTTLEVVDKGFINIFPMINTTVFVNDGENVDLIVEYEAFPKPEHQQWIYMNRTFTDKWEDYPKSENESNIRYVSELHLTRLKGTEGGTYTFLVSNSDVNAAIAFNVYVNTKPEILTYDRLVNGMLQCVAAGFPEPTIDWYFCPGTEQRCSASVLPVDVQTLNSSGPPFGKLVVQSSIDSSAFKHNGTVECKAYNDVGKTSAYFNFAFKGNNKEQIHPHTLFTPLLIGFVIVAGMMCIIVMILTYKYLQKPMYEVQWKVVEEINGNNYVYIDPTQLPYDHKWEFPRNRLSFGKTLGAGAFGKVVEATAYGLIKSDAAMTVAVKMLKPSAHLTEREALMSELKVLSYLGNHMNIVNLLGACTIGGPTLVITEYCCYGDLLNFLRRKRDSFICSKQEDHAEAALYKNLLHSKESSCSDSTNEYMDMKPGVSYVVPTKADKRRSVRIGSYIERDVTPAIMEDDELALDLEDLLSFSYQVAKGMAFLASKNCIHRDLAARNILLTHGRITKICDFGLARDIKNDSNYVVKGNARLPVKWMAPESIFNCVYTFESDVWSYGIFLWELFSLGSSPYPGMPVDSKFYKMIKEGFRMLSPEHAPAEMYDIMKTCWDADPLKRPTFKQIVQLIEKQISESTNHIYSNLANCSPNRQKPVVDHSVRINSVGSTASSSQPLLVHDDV
Procedure: as §1, §2

[3] = molecular target: PDGFR A (Homo sapiens, UniProt P16234); test: SelectScreen biochemical kinase profiling; format: binding; conditions: 100 nM, read-out: Inhibition (% of control) at 100 nM
Procedure: as §1, §2

[4] = molecular target: PDGFR B (Homo sapiens, UniProt P09619); test: SelectScreen biochemical kinase profiling; format: binding; conditions: 100 nM, read-out: Inhibition (% of control) at 100 nM
Procedure: as §1, §2

[5] = molecular target: RET (Homo sapiens, UniProt P07949); test: SelectScreen biochemical kinase profiling; format: binding; conditions: 100 nM, read-out: Inhibition (% of control) at 100 nM
Sequence of RET (P07949 29-1114): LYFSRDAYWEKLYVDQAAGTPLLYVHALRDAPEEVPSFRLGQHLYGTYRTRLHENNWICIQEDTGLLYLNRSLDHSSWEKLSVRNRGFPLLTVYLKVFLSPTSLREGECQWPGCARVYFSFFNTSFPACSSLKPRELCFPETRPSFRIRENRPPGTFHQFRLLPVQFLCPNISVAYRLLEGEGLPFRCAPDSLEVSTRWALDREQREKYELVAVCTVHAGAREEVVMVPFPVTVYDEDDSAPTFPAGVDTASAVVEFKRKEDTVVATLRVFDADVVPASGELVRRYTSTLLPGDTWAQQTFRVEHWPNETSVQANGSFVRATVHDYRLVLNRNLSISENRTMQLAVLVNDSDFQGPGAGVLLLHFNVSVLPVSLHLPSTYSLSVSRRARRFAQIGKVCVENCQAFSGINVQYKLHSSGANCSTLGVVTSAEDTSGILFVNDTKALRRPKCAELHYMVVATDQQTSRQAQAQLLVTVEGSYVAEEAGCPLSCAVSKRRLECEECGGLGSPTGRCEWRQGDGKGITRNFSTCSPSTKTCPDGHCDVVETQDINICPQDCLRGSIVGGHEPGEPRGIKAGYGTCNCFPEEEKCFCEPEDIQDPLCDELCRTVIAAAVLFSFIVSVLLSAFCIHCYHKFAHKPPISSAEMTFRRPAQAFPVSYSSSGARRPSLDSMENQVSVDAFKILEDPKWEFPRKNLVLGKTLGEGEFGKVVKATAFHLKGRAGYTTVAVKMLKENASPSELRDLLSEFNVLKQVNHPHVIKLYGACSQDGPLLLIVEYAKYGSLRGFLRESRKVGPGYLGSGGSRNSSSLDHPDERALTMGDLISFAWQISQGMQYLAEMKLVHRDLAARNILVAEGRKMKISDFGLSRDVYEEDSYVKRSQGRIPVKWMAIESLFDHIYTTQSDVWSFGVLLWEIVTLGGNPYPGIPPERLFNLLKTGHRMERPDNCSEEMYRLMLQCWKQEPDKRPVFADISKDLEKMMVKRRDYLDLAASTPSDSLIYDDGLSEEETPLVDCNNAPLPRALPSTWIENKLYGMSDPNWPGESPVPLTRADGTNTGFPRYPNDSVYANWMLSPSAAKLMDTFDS
Procedure: as §1, §2

[6] = molecular target: SRC (Homo sapiens, UniProt P12931); test: SelectScreen biochemical kinase profiling; format: binding; conditions: 100 nM, read-out: Inhibition (% of control) at 100 nM
Sequence of SRC (P12931 whole entry): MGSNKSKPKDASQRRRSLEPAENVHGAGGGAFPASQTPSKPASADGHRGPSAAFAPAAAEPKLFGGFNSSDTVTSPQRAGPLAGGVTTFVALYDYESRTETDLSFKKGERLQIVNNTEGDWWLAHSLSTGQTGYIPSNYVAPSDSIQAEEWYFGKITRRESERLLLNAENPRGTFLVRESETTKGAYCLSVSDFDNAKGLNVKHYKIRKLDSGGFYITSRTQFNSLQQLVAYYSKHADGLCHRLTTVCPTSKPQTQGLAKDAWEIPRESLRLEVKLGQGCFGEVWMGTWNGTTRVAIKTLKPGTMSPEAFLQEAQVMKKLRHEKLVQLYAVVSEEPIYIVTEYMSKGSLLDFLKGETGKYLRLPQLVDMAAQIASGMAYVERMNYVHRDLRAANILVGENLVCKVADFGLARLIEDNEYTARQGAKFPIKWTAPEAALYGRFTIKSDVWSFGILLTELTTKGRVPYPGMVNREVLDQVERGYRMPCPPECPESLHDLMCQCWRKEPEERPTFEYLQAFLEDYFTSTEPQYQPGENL
Procedure: as §1, §2

[7] = molecular target: TRK A (Homo sapiens, UniProt P04629); test: SelectScreen biochemical kinase profiling; format: binding; conditions: 100 nM, read-out: Inhibition (% of control) at 100 nM
Sequence of TRK A (P04629 33-796): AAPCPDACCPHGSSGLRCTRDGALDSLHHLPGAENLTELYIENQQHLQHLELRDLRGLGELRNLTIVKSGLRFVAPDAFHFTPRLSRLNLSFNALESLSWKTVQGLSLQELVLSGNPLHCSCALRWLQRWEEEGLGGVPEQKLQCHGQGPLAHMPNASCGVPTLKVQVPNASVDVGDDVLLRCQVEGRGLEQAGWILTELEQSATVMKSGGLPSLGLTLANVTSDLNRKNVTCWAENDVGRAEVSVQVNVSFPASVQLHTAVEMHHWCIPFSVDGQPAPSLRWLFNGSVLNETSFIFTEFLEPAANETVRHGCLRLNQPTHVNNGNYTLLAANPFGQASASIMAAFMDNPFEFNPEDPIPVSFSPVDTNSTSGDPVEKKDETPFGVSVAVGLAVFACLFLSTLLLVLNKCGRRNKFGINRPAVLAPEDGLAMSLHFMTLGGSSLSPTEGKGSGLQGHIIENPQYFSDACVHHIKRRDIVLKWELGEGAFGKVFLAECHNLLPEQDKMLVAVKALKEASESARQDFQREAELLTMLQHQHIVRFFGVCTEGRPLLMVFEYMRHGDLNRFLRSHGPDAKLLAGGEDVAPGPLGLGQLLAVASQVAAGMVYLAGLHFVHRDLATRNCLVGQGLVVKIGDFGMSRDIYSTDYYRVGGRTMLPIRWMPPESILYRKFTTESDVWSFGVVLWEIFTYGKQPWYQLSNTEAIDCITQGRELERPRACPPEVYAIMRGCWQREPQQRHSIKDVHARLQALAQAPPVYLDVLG
Procedure: as §1, §2

[8] = molecular target: TRK B (Homo sapiens, UniProt Q16620); test: SelectScreen biochemical kinase profiling; format: binding; conditions: 100 nM, read-out: Inhibition (% of control) at 100 nM
Sequence of TRK B (Q16620 32-822): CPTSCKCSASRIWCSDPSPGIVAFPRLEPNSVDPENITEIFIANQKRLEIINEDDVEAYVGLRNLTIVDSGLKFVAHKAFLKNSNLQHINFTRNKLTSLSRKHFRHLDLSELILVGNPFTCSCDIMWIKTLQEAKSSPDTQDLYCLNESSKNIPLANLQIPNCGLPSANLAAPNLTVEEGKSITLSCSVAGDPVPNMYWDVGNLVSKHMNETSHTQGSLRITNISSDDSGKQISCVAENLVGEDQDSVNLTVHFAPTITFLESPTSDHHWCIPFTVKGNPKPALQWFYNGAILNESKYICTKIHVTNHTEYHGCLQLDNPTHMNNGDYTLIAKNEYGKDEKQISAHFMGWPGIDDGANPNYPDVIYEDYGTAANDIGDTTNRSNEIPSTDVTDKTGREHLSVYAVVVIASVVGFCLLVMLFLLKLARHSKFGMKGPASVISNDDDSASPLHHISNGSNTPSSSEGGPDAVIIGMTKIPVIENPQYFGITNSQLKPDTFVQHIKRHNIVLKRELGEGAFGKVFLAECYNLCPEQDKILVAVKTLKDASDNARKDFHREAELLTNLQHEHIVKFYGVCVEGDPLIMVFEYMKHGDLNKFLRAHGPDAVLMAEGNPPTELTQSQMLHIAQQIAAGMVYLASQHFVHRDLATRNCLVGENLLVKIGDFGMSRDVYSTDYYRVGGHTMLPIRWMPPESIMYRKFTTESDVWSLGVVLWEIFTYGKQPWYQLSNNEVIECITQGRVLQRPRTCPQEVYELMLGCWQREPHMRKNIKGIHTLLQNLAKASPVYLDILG
Procedure: as §1, §2

[9] = tested on: 32D-ITD/D835F cells; test: MTS cell viability, 32D cells expressing FLT3-ITD mutant; format: cell-based, Murine; conditions: 72-h incubation
Text: (§3) The five leukemic 32D cell lines were purchased from American Type Culture Collection (ATCC, Manassas, Va., USA). Murine pro-B lymphocyte 32D cell lines were stably transfected with expression vectors that encoded human FLT3 containing an ITD mutation (32D-ITD cells), ITD and D835Y (32D-ITD/D835Y cells), ITD and D835V (32D-ITD/D835V cells), ITD and D835F (32D-ITD/D835F cells), and ITD and F691L (32D-ITD/F691L cells) mutations, which lead to constitutive activation of the FLT3 downstream signaling proteins. The cell viability was assessed with the MTS assay described in PLoS One, 2014, 9, e97116. 32D-ITD/D835Y, 32D-ITD/D835V, 32D-ITD/D835F, 32D-ITD/F691L, and 32D-ITD/F691I cells were seeded in 96-well plates at 1×10^4 cells/mL (100 μL per well) for 24-h incubation. Test compounds (at various concentrations in dimethyl sulfoxide (DMSO) were subsequently added to the culture medium for 72-h incubation. The cell viability was determined by the MTS assay (Promega, Madison, Wis., USA).

[10] = tested on: 32D-ITD/F691I cells; test: as above; format: cell-based, Murine; conditions: 72-h incubation
Text: as §3

[11] = tested on: 32D-ITD/F691L cells; test: as above; format: cell-based, Murine; conditions: 72-h incubation
Text: as §3

[12] = tested on: Colo205 xenografts; test: Xenograft efficacy, Colo205 model; format: in vivo; conditions: Colo205 xenografts in nude mice, 5 times a week for 2 weeks
Procedure: (§4) Male nude mice (Nu-Fox1^nu) of 8 weeks old were purchased from BioLASCO (Taipei, Taiwan, R.O.C.). Human colorectal Colo205, pancreatic Mia-PaCa 2 tumor cells or MOLM-13, 32D-ITD/D835Y leukemia cells were inoculated subcutaneously at 1×10^6 cells each in the nude mice. All human cancer cells were detected as free of Mycoplasma spp before they were injected into animals. The tumor cells grow as xenograft tumors and the tumor size reached approximately 200-250 mm^3 in the nude mice ready for dose treatments. Test compounds were dissolved in 20% 2-hydroxypropy-β-cyclodextrin individually for oral gavage administrations to the nude mice. The tumor-bearing mice were treated with test compounds at various doses, 5 times a week for 2 weeks. Tumor sizes were measured by an electronic caliper and calculated with the formula: tumor size=length×width^2/2. Tumor size and animal body weight were measured twice a week before and after the tumor cell inoculation throughout the observation period. Uses of animals and experimental procedures thereof were approved by the Institutional Animal Care and Use Committee (IACUC) of the National Health Research Institutes.

[13] = tested on: MOLM-13 xenografts; test: Xenograft efficacy, MOLM-13 model; format: in vivo, nude mice; conditions: starting tumor size ~250 mm^3
Procedure: as §4

[14] = tested on: xenografts FLT3-ITD-D835Y model; test: Xenograft efficacy, FLT3-ITD-D835Y model; format: in vivo; conditions: FLT3-ITD-D835Y xenograft in nude mice, PO 25 mg/kg
Procedure: as §4

[15] = tested on: xenografts colo205 nude mice; test: In vivo toxicity study, colo205 model; conditions: for Mortality (nude mice n = 6): 5 on 2 off × 2; for Tolerability: PO once daily, Compounds 1, 2, 3, 4, 6 at 50, 50, 100, 150 and 25 mg/kg
Procedure: as §4, with “All human cancer cells were detected as free of Mycoplasma spp before they were injected into animals.” left out
(§5) Nine weeks old athymic nu/nu nude mice were administered orally at a once daily dose of 25, 50, 100, or 150 mg/kg on days 1-5 and 8-12.

[16] = tested on: xenografts MOLM-13 nude mice; test: In vivo toxicity study, MOLM-13 model; conditions: for Mortality (nude mice n = 6 or 7): 5 on 2 off × 2; for Tolerability: PO once daily, Compound 2 at 25 and 50, Compound 4 at 150 mg/kg
Procedure: as §4
(§6) Compounds of formula (I) were tested in animals for their in vivo efficacy following the procedure described in EXAMPLE 24. Nine weeks old athymic nu/nu nude mice were administered orally at a once daily dose of 25, 50, 100, or 150 mg/kg on days 1-5 and 8-12.

[17] = tested on: xenografts FLT3-ITD-D835Y nude mice; test: In vivo toxicity study, FLT3-ITD-D835Y model; conditions: PO 25 mg/kg once daily; for Mortality (nude mice n = 8): 5 on 2 off × 2
Procedure: as §4, §6

[18] = Pharmacokinetics and oral bioavailability in mice; conditions: for AUC(0-inf) / bioavailability: male, ICR, mouse, plasma
Procedure: (§7) Male ICR mice weighing 25-35 g each were obtained from BioLASCO (Taiwan Co., Ltd, Ilan, Taiwan). The animal studies were performed according to the National Health Research Institutes (NHRI) institutional animal care and committee-approved procedures. […] A single dose at 10 mg/kg of each of these four compounds was administered orally (PO) to a total of 27 male mice. Each mouse was given 100 mL of the IV dosing solution by intravenous tail-vein injection and 200 mL of the PO dosing solution by oral gavage. Animals that received the IV dose were not fasted and that received the PO dose were fasted overnight prior to dosing. At 0 (immediately before dosing), 2 (IV only), 5 (IV only), 15 and 30 min and at 1, 2, 4, 6, 8, 16 and 24 h after dosing, blood (˜500 mL) was collected from groups of 3 mice at each time point by cardio puncture and stored in ice (0-4° C.). Ethylenediaminetetraacetic acid (EDTA) was used as the anticoagulant. Plasma was separated from the blood by centrifugation (3000 rpm for 15 minutes at 4° C. in a Beckman Model Allegra 6R centrifuge) and stored in a freezer (−20° C.). Control plasma was obtained from mice receiving no compound for use of constructing the standard curve and for the preparation of quality control (QC) samples. All samples were analyzed for the parent compound by LC-MS/MS.
(§8) Oral bioavailability, presented as a percentage (F %), was calculated from dividing the average area under the curve (AUC) value of a compound after PO dosing by the average AUC value of the compound after IV dosing following dose normalization.

[19] = molecular target: ABL1 T315I (Homo sapiens, UniProt P00519, T315I); test: SelectScreen biochemical kinase profiling; format: binding; conditions: 100 nM, read-out: Inhibition (% of control) at 100 nM
Procedure: as §1, §2

[20] = tested on: Mia-paca2 tumor model; test: Xenograft efficacy, Mia-paca2 tumor model; format: in vivo, nude mice; conditions: PO 25 mg/kg
Procedure: as §4

[21] = tested on: xenografts Mia-paca2 nude mice; test: In vivo toxicity study, Mia-paca2 model; conditions: PO 25 mg/kg once daily; for Mortality (nude mice n = 6): 5 on 2 off × 2
Procedure: as §4, with “All human cancer cells were detected as free of Mycoplasma spp before they were injected into animals.” left out
as §5

[22] = in vivo; conditions: male, ICR, mouse
Procedure: as §7, §8

Sequence of DDR1 (Q08345 19-913): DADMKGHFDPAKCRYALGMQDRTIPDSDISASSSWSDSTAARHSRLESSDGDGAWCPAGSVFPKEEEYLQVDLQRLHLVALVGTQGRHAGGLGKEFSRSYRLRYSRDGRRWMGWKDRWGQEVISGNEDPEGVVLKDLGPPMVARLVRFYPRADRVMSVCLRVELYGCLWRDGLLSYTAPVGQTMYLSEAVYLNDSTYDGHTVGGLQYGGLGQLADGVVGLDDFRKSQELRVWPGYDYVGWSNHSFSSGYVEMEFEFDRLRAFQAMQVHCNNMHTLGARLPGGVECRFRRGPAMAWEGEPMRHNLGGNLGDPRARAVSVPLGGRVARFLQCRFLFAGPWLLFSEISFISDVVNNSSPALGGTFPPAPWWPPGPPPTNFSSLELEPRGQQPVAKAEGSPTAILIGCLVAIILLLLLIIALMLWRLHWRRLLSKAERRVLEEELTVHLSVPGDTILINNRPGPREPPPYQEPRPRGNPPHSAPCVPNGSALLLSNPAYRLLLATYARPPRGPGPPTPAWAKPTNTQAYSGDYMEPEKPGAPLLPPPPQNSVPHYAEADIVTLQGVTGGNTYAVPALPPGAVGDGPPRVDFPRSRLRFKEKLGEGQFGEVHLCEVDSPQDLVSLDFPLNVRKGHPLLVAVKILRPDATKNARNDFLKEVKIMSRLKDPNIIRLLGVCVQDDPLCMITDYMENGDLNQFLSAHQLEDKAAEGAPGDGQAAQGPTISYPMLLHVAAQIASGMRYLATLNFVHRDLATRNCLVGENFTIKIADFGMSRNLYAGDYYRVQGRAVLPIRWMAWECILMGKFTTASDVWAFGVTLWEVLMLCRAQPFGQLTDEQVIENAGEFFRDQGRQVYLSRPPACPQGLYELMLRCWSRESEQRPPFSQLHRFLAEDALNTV

Compound	inhibition at 0.1 µM [1]	inhibition at 0.1 µM [2]	inhibition at 0.1 µM [3]	inhibition at 0.1 µM [4]	inhibition at 0.1 µM [5]	inhibition at 0.1 µM [6]	inhibition at 0.1 µM [7]	inhibition at 0.1 µM [8]	GI50 [9]	GI50 ([9]; Mus musculus, 32D, 72 h)	GI50 ([10]; Mus musculus, 32D, 72 h)	GI50 ([11]; Mus musculus, 32D, 72 h)	Day 12 tumor regression [14]	Tolerability [15]	Tolerability [16]	Tolerability [17]	Mortality (nude mice n = 8) [17]	AUC(0-inf) ([18]; iv, 2 mg/kg)	AUC(0-inf) ([18]; po, 10 mg/kg)	bioavailability ([18]; po, 10 mg/kg)	also measured
CCc1cc(NC(=O)Nc2ccc(-c3cnc(Nc4cc(N5CCN(CC)CC5)ncn4)s3)cc2)no1 [Compound 2, 1-(5-Ethylisoxazol-3-yl)-3-(4-(2-((6-(4-ethylpiperazin-1-yl)pyrimidin-4-yl)amino)thiazol-5-yl)phenyl)urea]	80%	67%	89%	80%	94%	79%	60%	72%	0.0058 µM	< 0.006 µM	0.158 µM	0.014 µM	34%	well tolerated	well tolerated	well tolerated	0/8 (25 mg/kg)	1440 ng·h/mL	2800 ng·h/mL		Day 18 TGI ([12]; PO 50 mg/kg, 50 mg/kg): ~80%; Day 25 tumor size ([13]; PO 25 mpk): 270 mm^3; Day 25 tumor size ([13]; PO 50 mpk): 53 mm^3; Mortality (nude mice n = 6) ([15]; PO 50 mg/kg once daily): 0/6 (50 mg/kg); Mortality (nude mice n = 6 or 7) ([16]; PO 25 or 50 mg/kg once daily): 0/6; F (%) oral bioavailability ([18]; mice, PO 10 mg/kg vs IV 2 mg/kg, dose normalized): 38%
CCc1cc(NC(=O)Nc2ccc(-c3cnc(Nc4cc(OCCN5CCOCC5)ncn4)s3)cc2)no1 [Compound 3, 1-(5-Ethylisoxazol-3-yl)-3-(4-(2-((6-(2-morpholinoethoxy)pyrimidin-4-yl)amino)thiazol-5-yl)phenyl)urea]	77%	85%	79%	92%	56%	66%	69%	73%						well tolerated				2070 ng·h/mL	11400 ng·h/mL	96%	inhibition at 0.1 µM [19]: 15%; Day 18 TGI ([12]; PO 100 mg/kg, 100 mg/kg): ~80%; Mortality (nude mice n = 6) ([15]; PO 100 mg/kg once daily): 0/6 (100 mg/kg)
CCc1cc(NC(=O)Nc2ccc(-c3cnc(Nc4cc(N5CCN(CCO)CC5)ncn4)s3)cc2)no1 [Compound 4, 1-(5-Ethylisoxazol-3-yl)-3-(4-(2-((6-(4-(2-hydroxyethyl)piperazin-1-yl)pyrimidin-4-yl)amino)thiazol-5-yl)phenyl)urea]									0.0055 µM	< 0.006 µM	< 0.02 µM	< 0.02 µM		well tolerated	well tolerated						GI50 [10]: 0.019 µM; GI50 [11]: 0.012 µM; Day 18 TGI ([12]; PO 150 mg/kg, 150 mg/kg): ~80%; Day 25 tumor size ([13]; PO 150 mpk): 193 mm^3 (150 mpk); Mortality (nude mice n = 6) ([15]; PO 150 mg/kg once daily): 0/6 (150 mg/kg); Mortality (nude mice n = 6 or 7) ([16]; PO 150 mg/kg once daily): 0/6
CCc1cc(NC(=O)Nc2ccc(-c3cnc(Nc4cc(N5CCN(CCF)CC5)ncn4)s3)cc2)no1 [Compound 5, 1-(5-Ethylisoxazol-3-yl)-3-(4-(2-((6-(4-(2-fluoroethyl)piperazin-1-yl)pyrimidin-4-yl)amino)thiazol-5-yl)phenyl)urea]													22%			well tolerated	0/8 (25 mg/kg)	2720 ng·h/mL	8240 ng·h/mL	67%	Day 18 TGI [20]: 65%; Tolerability [21]: well tolerated; Mortality (nude mice n = 6) [21]: 0/6 (25 mg/kg)
CCc1cc(NC(=O)Nc2ccc(-c3cnc(Nc4cc(N5CCN(CCF)CC5)nc(C)n4)s3)cc2)no1 [Compound 6, 1-(5-Ethylisoxazol-3-yl)-3-(4-(2-((6-(4-(2-fluoroethyl)piperazin-1-yl)-2-methylpyrimidin-4-yl)amino)thiazol-5-yl)phenyl)urea]														well tolerated							Day 18 TGI ([12]; PO 25 mg/kg, 25 mg/kg): ~80%; Day 18 TGI [20]: 68%; Mortality (nude mice n = 6) ([15]; PO 25 mg/kg once daily): 0/6 (25 mg/kg); Tolerability [21]: well tolerated; Mortality (nude mice n = 6) [21]: 0/6 (25 mg/kg); AUC(0-inf) ([22]; iv, 2 mg/kg): 1840 ng·h/mL; AUC(0-inf) ([22]; po, 10 mg/kg): 7580 ng·h/mL; bioavailability ([22]; po, 10 mg/kg): 89%
